Patent US20120270864A1, “2-QUINOLINONE AND 2-QUINOXALINONE-DERIVATIVES AND THEIR USE AS ANTIBACTERIAL AGENTS” (ASTRAZENECA AB, priority 2006, published 2012)

Tested on: Staphylococcus aureus (Sau) 516 cells
Test: Bacterial Susceptibility Testing Methods 2 (microbroth dilution, growth inhibition)
Format: cell-based
From the text: Compounds may be tested for antimicrobial activity by susceptibility testing using microbroth dilution methods recommended by CSLI. Compounds may be dissolved in dimethylsulfoxide and tested in 10 doubling dilutions in the susceptibility assays such that the final dimethylsulfoxide concentration in the assay is 2% (v/v). The Staphylococcus aureus (Sau) 516 cells used in the assay may be grown overnight on appropriate agar media and then suspended in the NCCLS-recommended liquid susceptibility-testing media. […] Plates may be incubated under appropriate conditions of atmosphere and temperature and for times according to NCCLS standard methods prior to being read. As used in Table 1 below, the term “inhibition” refers to the percentage of Staphylococcus aureus 516 cell growth that is suppressed (compared to an untreated sample) by the compound of the indicated example number. When tested in the above in-vitro assay, the compounds and salts of the example numbers listed below were tested at the indicated concentrations, providing the indicated inhibitions. In most instances, the highest concentrations at which the compounds were tested was 8 μg/mL. In some instances, however, compounds were tested at concentrations higher than 8 μg/mL, typically when the concentration was first measured in μM and was subsequently converted to μg/mL. In those cases in which compounds were tested at more than one concentration higher than 8 μg/mL, the concentration closest to 8 μg/mL is provided below.

[1] = Staphylococcus aureus, Tested Concentration 8 μg/mL, Staphylococcus aureus 516 cell growth suppressed compared to untreated sample
[2] = Tested Concentration 8 μg/mL, Staphylococcus aureus 516 cell growth suppressed compared to untreated sample
[3] = Staphylococcus aureus, Tested Concentration 12 μg/mL, Staphylococcus aureus 516 cell growth

SMILES: COc1ccc2ncc(=O)n(CCN3CCC(NCc4cc5c(cn4)OCCO5)C(O)C3)c2c1 (single isomer, unassigned) [Example 29, 1-(2-{4-[(2,3-Dihydro[1,4]dioxino[2,3-c]pyridin-7-ylmethyl)amino]-3-hydroxypiperidin-1-yl}ethyl)-7-methoxyquinoxalin-2(1H)-one]
- inhibition at 8 µg/mL [1]: 84%

SMILES: COc1ccc2ncc(=O)n(CCN3CCC(NCc4ccc5c(n4)NC(=O)CO5)C(O)C3)c2c1 (single isomer, unassigned) [Example 30, 6-[({3-Hydroxy-1-[2-(7-methoxy-2-oxoquinoxalin-1(2H)-yl)ethyl]piperidin-4-yl}amino)methyl]-2H-pyrido[3,2-b][1,4]oxazin-3(4H)-one]
- inhibition at 8 µg/mL [1]: 98%

SMILES: COc1ccc2ncc(=O)n(CCN3CCC(NCc4cc5c(cn4)OCCO5)C(O)C3)c2c1 (single isomer, unassigned) [Example 31, 1-(2-{4-[(2,3-dihydro[1,4]dioxino[2,3-c]pyridin-7-ylmethyl)amino]-3-hydroxypiperidin-1-yl}ethyl)-7-methoxyquinoxalin-2(1H)-one]
- Inhibition (%) [2]: 87%

SMILES: COc1ccc2ncc(=O)n(CCN3CCC(NCc4ccc5c(n4)NC(=O)CO5)C(O)C3)c2c1 (single isomer, unassigned) [Example 32, 6-[({3-Hydroxy-1-[2-(7-methoxy-2-oxoquinoxalin-1(2H)-yl)ethyl]piperidin-4-yl}amino)methyl]-2H-pyrido[3,2-b][1,4]oxazin-3 (4H)-one]
- Inhibition (%) [2]: 98%

SMILES: N#Cc1ccc2ccc(=O)n(CCN3CCC(NCc4cc5c(cn4)OCCO5)C(F)C3)c2c1 (single isomer, unassigned) [Example 33, 1-(2-{4-[(2,3-Dihydro[1,4]dioxino[2,3-c]pyridin-7-ylmethyl)amino]-3-fluoropiperidin-1-yl}ethyl)-2-oxo-1,2-dihydroquinoline-7-carbonitrile]
- inhibition at 13 µg/mL (Staphylococcus aureus, Tested Concentration 13 μg/mL, Staphylococcus aureus 516 cell growth): 96%

SMILES: COc1ccc2ncc(=O)n(CCN3CCC(NCc4cc5c(cn4)OCCO5)C(F)C3)c2c1 (single isomer, unassigned) [Example 35, 1-(2-{4-[(2,3-Dihydro[1,4]dioxino[2,3-c]pyridin-7-ylmethyl)amino]-3-fluoropiperidin-1-yl}ethyl)-7-methoxyquinoxalin-2(1H)-one]
- inhibition at 14 µg/mL (Staphylococcus aureus, Tested Concentration 14 μg/mL, Staphylococcus aureus 516 cell growth): 100%

SMILES: COc1ccc2ncc(=O)n(CCN3CCC(NCc4ccc5c(n4)NC(=O)CO5)C(F)C3)c2c1 (single isomer, unassigned) [Example 36, 6-[({3-Fluoro-1-[2-(7-methoxy-2-oxoquinoxalin-1(2H)-yl)ethyl]piperidin-4-yl}amino)methyl]-2H-pyrido[3,2-b][1,4]oxazin-3(4H)-one]
- inhibition at 12 µg/mL [3]: 90%

SMILES: N#Cc1ccc2ccc(=O)n(CCN3CCC(NCc4cc5c(cn4)OCCO5)C(F)C3)c2c1 (single isomer, unassigned) [Example 37, 1-(2-{4-[(2,3-Dihydro[1,4]dioxino[2,3-c]pyridin-7-ylmethyl)amino]-3-fluoropiperidin-1-yl}ethyl)-2-oxo-1,2-dihydroquinoline-7-carbonitrile]
- Inhibition (%) (Tested Concentration 13 μg/mL, Staphylococcus aureus 516 cell growth): 100%

SMILES: N#Cc1ccc2ccc(=O)n(CCN3CCC(NCc4ccc5c(n4)NC(=O)CO5)C(F)C3)c2c1 (single isomer, unassigned) [Example 38, 1-[2-(3-Fluoro-4-{[(3-oxo-3,4-dihydro-2H-pyrido[3,2-b][1,4]oxazin-6-yl)methyl]amino}piperidin-1-yl)ethyl]-2-oxo-1,2-dihydro quino line-7-carbonitrile]
- inhibition at 12 µg/mL [3]: 100%

SMILES: COc1ccc2ncc(=O)n(CCN3CCC(NCc4cc5c(cn4)OCCO5)C(F)C3)c2c1 (single isomer, unassigned) [Example 39, 1-(2-{4-[(2,3-Dihydro[1,4]dioxino[2,3-c]pyridin-7-ylmethyl)amino]-3-fluoropiperidin-1-yl}ethyl)-7-methoxyquinoxalin-2(1H)-one]
- Inhibition (%) (Tested Concentration 14 μg/mL, Staphylococcus aureus 516 cell growth): 100%

SMILES: COc1ccc2ncc(=O)n(CCN3CCC(NCc4ccc5c(n4)NC(=O)CO5)C(F)C3)c2c1 (single isomer, unassigned) [Example 40, 6-[({3-Fluoro-1-[2-(7-methoxy-2-oxoquinoxalin-1(2H)-yl)ethyl]piperidin-4-yl}amino)methyl]-2H-pyrido[3,2-b][1,4]oxazin-3 (4H)-one]
- Inhibition (%) (Tested Concentration 12 μg/mL, Staphylococcus aureus 516 cell growth): 100%

SMILES: N#Cc1ccc2ccc(=O)n(CCN3CC[C@H](NCc4cc5c(cn4)OCCO5)[C@H](O)C3)c2c1 [Example 1]
- Inhibition (%) [2]: 100%

SMILES: N#Cc1ccc2ccc(=O)n(CCN3CC[C@H](NCc4ccc5c(n4)NC(=O)CS5)[C@H](O)C3)c2c1 [Example 3, 1-[2-((3R,4S)-3-Hydroxy-4-{[(3-oxo-3,4-dihydro-2H-pyrido[3,2-b][1,4]thiazin-6-yl)methyl]amino}piperidin-1-yl)ethyl]-2-oxo-1,2-dihydroquinoline-7-carbonitrile]
- inhibition at 8 µg/mL [1]: 99%

SMILES: N#Cc1ccc2ccc(=O)n(CCN3CC[C@@H](NCc4cc5c(cn4)OCCO5)[C@@H](O)C3)c2c1 [Example 4, 1-(2-{(3S,4R)-4-[(2,3-Dihydro[1,4]dioxino[2,3-c]pyridin-7-ylmethyl)amino]-3-hydroxypiperidin-1-yl}ethyl)-2-oxo-1,2-dihydroquinoline-7-carbonitrile]
- inhibition at 8 µg/mL [1]: 100%

SMILES: N#Cc1ccc2ccc(=O)n(CCN3CC[C@@H](NCc4ccc5c(n4)NC(=O)CO5)[C@@H](O)C3)c2c1 [Example 5, 1-[2-((3S,4R)-3-Hydroxy-4-{[(3-oxo-3,4-dihydro-2H-pyrido[3,2-b][1,4]oxazin-6-yl)methyl]amino}piperidin-1-yl)ethyl]-2-oxo-1,2-dihydro quino line-7-carbonitrile]
- inhibition at 8 µg/mL [1]: 100%

SMILES: N#Cc1ccc2ccc(=O)n(CCN3CC[C@@H](NCc4ccc5c(n4)NC(=O)CS5)[C@@H](O)C3)c2c1 [Example 6, 1-[2-((3S,4R)-3-Hydroxy-4-{[(3-oxo-3,4-dihydro-2H-pyrido[3,2-b][1,4]thiazin-6-yl)methyl]amino}piperidin-1-yl)ethyl]-2-oxo-1,2-dihydro quino line-7-carbonitrile]
- inhibition at 8 µg/mL [1]: 99%

SMILES: COc1ccc2ncc(=O)n(CCN3CC[C@H](NCc4cc5c(cn4)OCCO5)[C@H](O)C3)c2c1 [Example 7, 1-(2-{(3R,4S)-4-[(2,3-Dihydro[1,4]dioxino[2,3-c]pyridin-7-ylmethyl)amino]-3-hydroxypiperidin-1-yl}ethyl)-7-methoxyquinoxalin-2(1H)-one]
- inhibition at 8 µg/mL [1]: 100%

SMILES: COc1ccc2ncc(=O)n(CCN3CC[C@H](NCc4ccc5c(n4)NC(=O)CO5)[C@H](O)C3)c2c1 [Example 8, 6-[({(3R,4S)-3-Hydroxy-1-[2-(7-methoxy-2-oxoquinoxalin-1(2H)-yl)ethyl]piperidin-4-yl}amino)methyl]-2H-pyrido[3,2-b][1,4]oxazin-3(4H)-one]
- inhibition at 8 µg/mL [1]: 99%

SMILES: COc1ccc2ncc(=O)n(CCN3CC[C@H](NCc4ccc5c(n4)NC(=O)CS5)[C@H](O)C3)c2c1 [Example 9]
- Inhibition (%) [2]: 100%

SMILES: COc1ccc2ncc(=O)n(CCN3CC[C@@H](NCc4cc5c(cn4)OCCO5)[C@@H](O)C3)c2c1 [Example 10, 1-(2-{(3S,4R)-4-[(2,3-Dihydro[1,4]dioxino[2,3-c]pyridin-7-ylmethyl)amino]-3-hydroxypiperidin-1-yl}ethyl)-7-methoxyquinoxalin-2(1H)-one]
- inhibition at 8 µg/mL [1]: 100%
